ChEMBL document CHEMBL4622849, “Discovery of ethyl ketone-based HDACs 1, 2, and 3 selective inhibitors for HIV latency reactivation” (Bioorg Med Chem Lett, 2020)

Key:
Assay type in all cases: ADME, organism-based
Conditions in all cases: in vivo
[1] = Clearance in Wistar Han rat at 2 mg/kg, iv or 5 mg/kg, po
[2] = AUC in Wistar Han rat at 5 mg/kg, po
[3] = Oral bioavailability in Wistar Han rat at 5 mg/kg
[4] = Cmax in Wistar Han rat at 5 mg/kg, po; parameters: dose 5 mg/kg, route oral
[5] = Half life in Wistar Han rat at 2 mg/kg, iv or 5 mg/kg, po

- clearance [1]: 7.2 mL/min/kg
- AUC [2]: 1.13 µM·h
- bioavailability [3]: 5.8%
- Cmax [4]: 260 nM
- half-life [5]: 3 h
Structure (SMILES): CCC(=O)CCCCC[C@H](NC(=O)[C@H]1CC12CCN(CC)CC2)c1ncc(-c2cc3ccccc3nc2OC)[nH]1
